# Test results reported in PubChem BioAssay AID1963835 (Molecular Pharmacology Branch, DTP, NCI, 2024).
# System: 699152-130-R-J1-PDC complex spheroid viability
# Assay: Anticancer human tumor 699152-130-R-J1-PDC patient-derived pancreatic carcinoma cell line growth inhibition [POLQ]
# Conditions: for IC50: curve of first compound; for viability, T/C: stronger effect = lower value
# Outline: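 Growth inhibition in 3D: complex spheroids (tumor PDC, HUVEC, MSC) treated with POLQ inhibitor combinations; where Cmax unknown, highest tested concentration 10 microM, except SN-38 at 1 microM.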
# [1] = second compound 0.0316 µM, first compound 0.0316 µM
# [2] = second compound 0.0316 µM, first compound 0.1 µM
# [3] = second compound 0.0316 µM, first compound 0.316 µM
# [4] = second compound 0.0316 µM, first compound 1 µM
# [5] = second compound 0.0316 µM, first compound 3.16 µM
# [6] = second compound 0.0316 µM, first compound 10 µM
# [7] = second compound 0.1 µM, first compound 0.0316 µM
# [8] = second compound 0.1 µM, first compound 0.1 µM
# [9] = second compound 0.1 µM, first compound 0.316 µM
# [10] = second compound 0.1 µM, first compound 1 µM
# [11] = second compound 0.1 µM, first compound 3.16 µM
# [12] = second compound 0.1 µM, first compound 10 µM
# [13] = second compound 0.316 µM, first compound 0.0316 µM
# [14] = second compound 0.316 µM, first compound 0.1 µM
# [15] = second compound 0.316 µM, first compound 0.316 µM
# [16] = second compound 0.316 µM, first compound 1 µM
# [17] = second compound 0.316 µM, first compound 3.16 µM
# [18] = second compound 0.316 µM, first compound 10 µM
# [19] = second compound 1 µM, first compound 0.0316 µM
# [20] = second compound 1 µM, first compound 0.1 µM
# [21] = second compound 1 µM, first compound 0.316 µM
# [22] = second compound 1 µM, first compound 1 µM
# [23] = second compound 1 µM, first compound 3.16 µM
# [24] = second compound 1 µM, first compound 10 µM
# [25] = second compound 3.16 µM, first compound 0.0316 µM
# [26] = second compound 3.16 µM, first compound 0.1 µM
# [27] = second compound 3.16 µM, first compound 0.316 µM
# [28] = second compound 3.16 µM, first compound 1 µM
# [29] = second compound 3.16 µM, first compound 3.16 µM
# [30] = second compound 3.16 µM, first compound 10 µM
# [31] = second compound 10 µM, first compound 0.0316 µM
# [32] = second compound 10 µM, first compound 0.1 µM
# [33] = second compound 10 µM, first compound 0.316 µM
# [34] = second compound 10 µM, first compound 1 µM
# [35] = second compound 10 µM, first compound 3.16 µM
# [36] = second compound 10 µM, first compound 10 µM
# 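Note: spheroids exposed to agents for 7 days before viability reading.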
# 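Throughout, for viability, T/C: percent of DMSO vehicle control viability so 100% = vehicle and 0% = no viable signal.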
smiles,measurement,setting,value
C#Cc1c(F)ccc2cc(O)cc(-c3ncc4c(N5CC6CCC(C5)N6)nc(OCC56CCCN5CC(F)C6)nc4c3F)c12 (centres undefined) + COC1C(OC(N)=O)C(O)C(Oc2ccc3c(O)c(NC(=O)c4ccc(O)c(CC=C(C)C)c4)c(=O)oc3c2C)OC1(C)C,IC50,second compound 0.0316 µM,< 0.0316 µM
same,IC50,second compound 0.1 µM,< 0.0316 µM
same,IC50,second compound 0.316 µM,< 0.0316 µM
same,IC50,second compound 1 µM,< 0.0316 µM
same,IC50,second compound 3.16 µM,< 0.0316 µM
same,IC50,second compound 10 µM,< 0.0316 µM
same,"viability, T/C",[1],24.1%
same,"viability, T/C",[2],22.1%
same,"viability, T/C",[3],15.1%
same,"viability, T/C",[4],14.3%
same,"viability, T/C",[5],13.6%
same,"viability, T/C",[6],14.2%
same,"viability, T/C",[7],25.4%
same,"viability, T/C",[8],21.3%
same,"viability, T/C",[9],17%
same,"viability, T/C",[10],11.4%
same,"viability, T/C",[11],12.7%
same,"viability, T/C",[12],11.7%
same,"viability, T/C",[13],26.2%
same,"viability, T/C",[14],18.8%
same,"viability, T/C",[15],16.5%
same,"viability, T/C",[16],12.8%
same,"viability, T/C",[17],13.2%
same,"viability, T/C",[18],11.3%
same,"viability, T/C",[19],26.8%
same,"viability, T/C",[20],22.6%
same,"viability, T/C",[21],17.7%
same,"viability, T/C",[22],13.2%
same,"viability, T/C",[23],11.9%
same,"viability, T/C",[24],12.4%
same,"viability, T/C",[25],26.3%
same,"viability, T/C",[26],19.6%
same,"viability, T/C",[27],18.8%
same,"viability, T/C",[28],13.7%
same,"viability, T/C",[29],12.4%
same,"viability, T/C",[30],12.2%
same,"viability, T/C",[31],23.9%
same,"viability, T/C",[32],22.3%
same,"viability, T/C",[33],17.2%
same,"viability, T/C",[34],14.2%
same,"viability, T/C",[35],13.8%
same,"viability, T/C",[36],12.7%
CNCc1ccc(-c2[nH]c3cc(F)cc4c3c2CCNC4=O)cc1 + Nc1ccc(C#CCN(C(=O)Cc2ncc(C(F)(F)F)cc2C(F)(F)F)c2ccc(F)cc2)nn1,IC50,second compound 0.0316 µM,> 10 µM
same,IC50,second compound 0.1 µM,> 10 µM
same,IC50,second compound 0.316 µM,> 10 µM
same,IC50,second compound 1 µM,> 10 µM
same,IC50,second compound 3.16 µM,> 10 µM
same,IC50,second compound 10 µM,> 10 µM
same,"viability, T/C",[1],103%
same,"viability, T/C",[2],98.8%
same,"viability, T/C",[3],95.9%
same,"viability, T/C",[4],115%
same,"viability, T/C",[5],115%
same,"viability, T/C",[6],123%
same,"viability, T/C",[7],95.8%
same,"viability, T/C",[8],104%
same,"viability, T/C",[9],100%
same,"viability, T/C",[10],105%
same,"viability, T/C",[11],113%
same,"viability, T/C",[12],118%
same,"viability, T/C",[13],85.2%
same,"viability, T/C",[14],109%
same,"viability, T/C",[15],105%
same,"viability, T/C",[16],102%
same,"viability, T/C",[17],127%
same,"viability, T/C",[18],132%
same,"viability, T/C",[19],94.9%
same,"viability, T/C",[20],90%
same,"viability, T/C",[21],100%
same,"viability, T/C",[22],94.6%
same,"viability, T/C",[23],112%
same,"viability, T/C",[24],132%
same,"viability, T/C",[25],105%
same,"viability, T/C",[26],93.6%
same,"viability, T/C",[27],109%
same,"viability, T/C",[28],104%
same,"viability, T/C",[29],105%
same,"viability, T/C",[30],122%
same,"viability, T/C",[31],99.7%
same,"viability, T/C",[32],104%
same,"viability, T/C",[33],107%
same,"viability, T/C",[34],107%
same,"viability, T/C",[35],130%
same,"viability, T/C",[36],120%
